A short description of data set [1]: Hygroscopicity of solid lactosucrose products under high temperature and humidity. In kind it is physicochemical. An excerpt:
While, it has been known that a powdery saccharide, comprising lactosucrose with a lowered hygroscopicity and relatively high stability, can be obtained by elevating the purity of lactosucrose (see Japanese Patent Kokai No. 281,795/92).
To solve the above objects, the present inventors studied on a process for producing lactosucrose, using β-fructofuranosidase, from the viewpoints of the origin of β-fructofuranosidase and reaction condition as well as the combination with sucrose-unassimilable yeast. It has been thought that the lactosucrose content in the reaction mixture reaches maximum about 65%, on a saccharide composition basis, even in the case of using β-fructofuranosidase and invertase-deficient yeast.
According to conventional methods, lactosucrose high content fraction, obtained by the method in Example 4, was filtrated, deionized using ion-exchange resin, decolored using activated charcoal, and concentrated under a reduced pressure to give a moisture content of about 25% (w/w). The resulting concentrate was placed in a crystallizer, admixed with 1% (w/w) of seed crystal and gradually cooled to about 30° C. in 24 hours. The resulting massecuite was centrifuged and crystalline lactosucrose pentahydrate was obtained in a yield of about 40%. […]

The conditions of data set [2]: crystal obtained from 90% (v/v) ethanol solution, Avigad 1957; cited from earlier work.

Data on two compounds can be found in patent US20080027027A1, “Lactosucrose High Content Saccharide, Its Preparation and Uses” (priority 2004, published 2008).

Like-named read-outs stand apart in the source and are kept apart here.

As to `OC[C@H]1O[C@@H](O[C@H]2[C@H](O)[C@@H](O)[C@@H](O[C@]3(CO)O[C@H](CO)[C@@H](O)[C@@H]3O)O[C@@H]2CO)[C@H](O)[C@@H](O)[C@H]1O` [crystalline lactosucrose, β-D-galactosyl-(1,4)-α-D-glucosyl-(1,2)-β-D-fructoside], the hygroscopicity entry in data set [1] (27° C. and a relative humidity of 75%) is “low hygroscopicity”; in data set [1] (condition of high-temperature and humidity in summer) it was “no substantial hygroscopicity”.
Regarding `O.O.O.O.O.OCC1OC(OC2C(CO)OC(OC3(CO)OC(CO)C(O)C3O)C(O)C2O)C(O)C(O)C1O` (stereo not drawn) [crystalline lactosucrose pentahydrate], in data set [2], the hygroscopicity entry is listed as “strong hygroscopicity”.
